Assay results reported in US11981951B2, “Process for the production of methyl methacrylate” (Mitsubishi Chemical UK Limited, priority 2016, dated 2024).
≈ marks a conversion by molar mass, not a printed value. Where two headings read alike, the source gives them in different places.

Legend:
[1] = Solubility limit in the fermentation medium; type: physicochemical; conditions: plasma or biological fluid
Procedure: In embodiments where the C3-C12 methacrylate ester is butyl methacrylate, it is particularly preferred that the titre of butyl methacrylate in the fermentation medium is at least 120, 130, 140, 150 or 200 mg/l. […] At such a concentration, the need for an additional extraction solvent may be negated.

[2] = logPo/w (1-octanol/water partition coefficient); type: physicochemical
Text: In embodiments, the organic solvent has a logPo/w value of greater than or equal to 3.0. More preferably, the organic solvent has a logPo/w value of greater than or equal to 3.6, 3.7, 3.8, 3.9 or 4.0. logPo/w is defined as the logarithm of the partition coefficient of a particular solvent between a standardized 1:1 mixture of 1-octanol and water. The present inventors have shown that, with increasing logPo/w value there is a decrease in the resultant microorganism toxicity. Particularly preferred solvents are higher alkanes of C6 and above which may be linear or branched, cyclic alkanes of C7 and above and aromatic compounds, particularly benzene, substituted with one or more substituents of C3 and above, particularly alkyl substituents which may be linear or branched.

[3] = Extraction of BMA and MMA from biotransformation medium into dodecane (GC-FID); type: physicochemical; conditions: for average amount extracted into dodecane: across all samples
Procedure: The samples from the BMA/MMA extraction experiments were analysed using gas chromatography under the following operating conditions:
Biomass was harvested from each flask and a separate biotransformation conducted. BMA and MMA levels in dodecane following solvent extraction was quantified by gas chromatography flame ionization detector (GC-FID).
In a 1 I baffled shake flask, a starter culture of 200 ml LB medium containing 200 µg/ml ampicillin was grown for 16.33 hours. The culture was back diluted to OD600 0.2 into 5 1 I baffled shake flasks containing 300 ml fresh LB medium and left to grow at 30° C. and 250 rpm for 23.35 hours. The biomass was then harvested by centrifugation at 5000 rpm and 4° C. for 15 minutes. Each cell pellet was washed with 100 mM sodium phosphate (pH 6.7) and the centrifugation step was repeated. The biomass was resuspended in the required volume of biotransformation medium until an OD600 of 25 was reached.
Biotransformation reactions were conducted in 5×250 ml sealed Schott bottles at 30° C. and 180 rpm for 24 hours.
Samples were taken for GC-FID analysis at 5 hour and 24 hour time points. At each time point 5 ml sample was removed and transferred to a 15 ml falcon tube. Acetonitrile (5 ml) was added in addition to dodecane (1 ml). The mixture was vigorously shaken at >800 rpm for 10 minutes before centrifugation at 3900 rpm and 20° C. for 20 minutes. A 500 μl sample was taken from both the organic and aqueous phases, filtered through a 0.45 μm filter and placed in a crimped lid gas chromatography vial prior to injection.
Quantification of BMA and MMA levels in biotransformation samples was achieved by using external standard calibration […] obtained by preparing volumetric stock solutions of BMA and MMA at known concentrations.

E. coli strain MG1655 = experiment: Growth inhibition (methacrylate ester toxicity) test, E. coli; type: cell-based; conditions: Escherichia coli
[4] = system: S. cerevisiae strain DSM70449; experiment: Growth inhibition (methacrylate ester toxicity) test, S. cerevisiae; type: cell-based; conditions: Saccharomyces cerevisiae, read-out: IC50 range
[5] = MG1655, E. coli grown in MSX medium, from final biomass concentrations, read-out: IC50 range
[6] = E. coli MG1655 in LB complex medium, final biomass after 72 hours, concentration that halves MaxOD600, read-out: IC50 range
[7] = S. cerevisiae DSM70449 in YEPD complex medium, final biomass after 72 hours, concentration that halves MaxOD600

| SMILES | solubility [1] | logPo/w ([2]; 1-octanol/water (1:1)) | average amount extracted into dodecane [3] | extraction efficiency into dodecane compared to MMA ([3]; biotransformations 2 and 3 (40 mg/l added)) | extraction efficiency into dodecane compared to MMA ([3]; biotransformations 4 and 5 (100 mg/l added)) | IC50 (E. coli strain MG1655; [5]) | IC50 (E. coli strain MG1655; [6]) | IC50 [4, 7] | IC50 (E. coli strain MG1655; MG1655, 72 h, read-out: IC50 range) | IC50 (E. coli strain MG1655; MG1655, read-out: IC50 range) | IC50 ([4]; DSM70449, 72 h) | logPo/w [2] |
| --- | --- | --- | --- | --- | --- | --- | --- | --- | --- | --- | --- | --- |
| C=C(C)C(=O)OCCCC [BMA, butyl methacrylate] | ~0.22 mg/mL (≈ 1.55 mM) | 2.57 | around 35.6% | 2.7 × | 3.3 × | 70 to 110 mg/L (≈ 0.492 to 0.774 mM) | 70 to 110 mg/L (≈ 0.492 to 0.774 mM) | 40 to 70 mg/L (≈ 0.281 to 0.492 mM) | – | – | – | – |
| C=C(C)C(=O)OC [MMA, methyl methacrylate] | – | 0.95 | ~10.5% | – | – | – | – | – | 3190 to 4250 mg/L (≈ 31.9 to 42.5 mM) | 3190 to 4250 mg/L (≈ 31.9 to 42.5 mM) | 730 to 1450 mg/L (≈ 7.29 to 14.5 mM) | – |
| C=C(C)C(=O)OC(C)C [iPMA, isopropyl methacrylate] | – | – | – | – | – | 1180 to 1770 mg/L (≈ 9.21 to 13.8 mM) | 1180 to 1770 mg/L (≈ 9.21 to 13.8 mM) | 660 to 990 mg/L (≈ 5.15 to 7.72 mM) | – | – | – | 1.81 |
